From patent US6673348B2, “Heat shock protein-based vaccines and immunotherapies” (priority 1995, dated 2004) come the findings set out here.

Assay [1] relates to Ova-peptide pulsed EL4 cells. In words: Cytotoxicity of spleen cells from vaccinated mice, 18-hour chromium release assay. In kind it is in vivo, C57BL/6 mice. The settings on record: mice immunized with the single component alone. The protocol: The purified hsp70 was combined with the synthesized peptides and used for immunization. To form the hsp70/peptide mixtures, approximately 15 μg (21.5 μM) hsp70 was combined with 5 μg of ova-peptide (0.5 mM, SEQ. ID. NO: 7) or 10 μg (0.5 mM) hybrid peptide (SEQ. ID NOS: 8 and 9) were mixed on ice to a final volume of 10 μl in Buffer B (final concentration: 20 mM Hepes pH 7.0, 150 mM KCl, 10 mM (NH4)2SO4, 2 mM MgCl2 and 2 mM MgADP, pH 7.0). The mixtures were incubated for 30 minutes at 37° C. and then used for in vivo immunizations.
C57BL/6 mice were immunized intradermally once a week for a total of two weeks with 10 μL of one of the mixtures described above or with a mixture of TITERMAX® (Vaxcell, Norcross, Ga.) and Ova-peptide (5 μg). One week after the second immunization, spleen cells were removed and mononuclear cells (6-8×10^7) were cultured with 3×10^6 γ-irradiated (3000 rad) stimulator cells. The stimulator cells were obtained from naive mice that had been sensitized in vitro with Ova-peptide (10 mg/ml) for 30 minutes at room temperature, washed and irradiated at 3000 rads.
Cytotoxicity of spleen cells from vaccinated mice were assayed on Ova-peptide pulsed EL4 cells in an 18-hour chromium release assay. CTL were generated by culturing in vivo immunized spleen cells for 5 days at a concentration of 10^6 cells/mL in RPMI medium, 10% FCS, penicillin, streptomycin and 2 mM L-glutamine, together with 3×10^6 γ-irradiated (3,000 rad) stimulator cells/mL. Target cells were prepared by culturing cells for 1 hour in the presence of 250 μCi of ^51Cr sodium chromate (DuPont, Boston, Mass.) in Tris-phosphate buffer, pH 7.4 at 37° C. for 60 minutes. After washing, 10^4 ^51Cr-labeled target cells were mixed with effector lymphocytes to yield several different effector/target (E/T) ratios and were incubated for 18 hours. Supernatants were harvested and the radio-activity was measured in a gamma counter. Percent specific lysis was calculated as: 100×[(cpm release by CTL-cpm spontaneous release)/(cpm maximal release—cpm spontaneous release)]. Maximal response was determined by addition of 1% Triton X-100. Spontaneous release of all target in the absence of effector cells was less than 25% of the maximal release.

The target of assay [2] is T1, BiP (Mus musculus, UniProt P20029).
T1 construct: mature wild-type or KDEL-deleted BiP can be harvested from the periplasm; extra Met (initiator ATG of the 5' primer, ahead of the mature N-terminus) (N); made in house; host or cells: E. coli BL21, pET22, periplasmic extract
Nature of the assay: Binding of 14C-labeled OVA-BiP to heat shock protein, co-elution on Sephacryl S-300 column. The settings on record: 100 μM 14C-labeled peptide, 50 μg BiP, 37° C., 30 minutes. As to the method:
^14C-labeled OVA-BiP was prepared by alkylation of OVA-BiP with ^14C-formaldehyde. 0.9 mg of OVA-BiP in 300 uL 10% DMSO/water was added to 175 μl of ^14C-formaldehyde (62 μCi) and immediately 50 uL of freshly made up 200 mM NaCNBH3 was added. The reaction was mixed and left at 25° C. for 3 hours. The labeled peptide was repurified by reverse phase HPLC on a C-4 column in a 15 minute 0-100% acetonitrile (0.1% TFA) gradient.
The ability of the OVA-BiP peptide to bind to heat shock proteins was measured by incubating 100 μM (5μg) ^14C-labeled OVA-BiP with 50 μg of BiP (prepared as in example 11), hsp70 (as prepared in Example 2) or grp96 (prepared as in Example 10) in a final volume of 20 μl of buffer (50 mM Mops, pH 7.2., […] NaCl, 5 mM MgAcetate) at 37° C. for 30 minutes. The samples were then spun down (5 minutes in a microfuge) and loaded onto a 17 cm long Sephacryl S-300 column equilibrated in binding buffer (50 mM Mops, pH 7.2., 200 mM NaCl, 5 mM MgAcetate) and fractions were collected dropwise. 50 μl of each ˜225 μl fraction was counted in scintillation liquid. 10 μl of each fraction was also run on a 12% SDS-PAGE reducing gel. […] The result for gp96 is unclear because the peak at fraction 11 (which may represent an aggregation phenomenon) and the gp96 peak (fraction 14) elute close together on the column used.

Assay [3] has as its target T2, hsp70 (Mus musculus, UniProt P17879).
T2 construct: made in house; host or cells: E. coli DH5α, plasmid pMS236
Described as above. Particulars: 100 μM 14C-labeled peptide, 50 μg hsp70, 37° C., 30 minutes. As to the method: Purified mouse cytosolic hsp70 was prepared from E. coli DH5α cells transformed with pMS236 encoding mouse cytosolic hsp70. The cells were grown to an optical density (600 nm) of 0.6 at 37° C., and expression was induced by the addition of IPTG to a final concentration of 1 mM. Cells were harvested by centrifugation 2 to 5 hours post induction and the pellets were resuspended to 20 mL with Buffer A (20 mM Hepes pH 7.0, 25 mM KCl, 1 mM DTT, 10 mM (NH4)2SO4, 1 mM PMSF). The cells were lysed by passing three times through a French press. The lysate was cleared by a low speed spin, followed by centrifugation at 100,000×G for 30 minutes. The cleared lysate was applied to a Pharmacia XK26 column packed with 100 mL DEAE Sephacel and equilibrated with Buffer A at a flow rate of 0.6 cm/min. The column was washed to stable baseline with Buffer A and eluted with Buffer A adjusted to 175 mM KCl. […]
The ability of the OVA-BiP peptide to bind to heat shock proteins was measured by incubating 100 μM (5μg) ^14C-labeled OVA-BiP with 50 μg of BiP (prepared as in example 11), hsp70 (as prepared in Example 2) or grp96 (prepared as in Example 10) in a final volume of 20 μl of buffer (50 mM Mops, pH 7.2., […] NaCl, 5 mM MgAcetate) at 37° C. for 30 minutes. […] 50 μl of each ˜225 μl fraction was counted in scintillation liquid. […]

For assay [4], the target named is T1, BiP. Nature of the assay: ATP-mediated peptide release, elution profile of 125I-OVA-BiP and BiP. In kind it is binding. The settings on record: presence and absence of 2 mM ATP. The protocol:
To prepare ^125I-OVA-BiP, 250 μCi of monoiodinated Bolton-Hunter reagent was transferred into a stoppered vial and the solvent in which it was dissolved was evaporated with a gentle stream of argon gas. To the dried reagent 222 μL of 4.5 mg/mL OVA-BiP in 100 mM NaBO3, pH 8, […], 10% DMSO was added. The reaction was mixed and incubated at 25° C. for 45 minutes and continued at 4° C. for a further hour. The labeled peptide was repurified by reverse phase HPLC on a C-4 column in a 20 minute, 0-100% acetonitrile (0.1% TFA) gradient. The iodinated OVA-BiP was combined with BiP in substantially the same manner as the heat shock proteins in Example 7, except that since the iodinated peptide was at a very low concentration, 1 μl (approx 32 ng) of labeled peptide was mixed with 5 μg of unlabeled peptide and this was incubated with 50 μg of BiP in 20 μL of binding buffer. To observe ATP-mediated peptide release, ATP was added to a final concentration of 2 mM after the 30 minute incubation and incubated for a further 5 minutes prior to spinning. These samples were run on the same column as above, but equilibrated in binding buffer supplemented with 2 mM ATP. […] This is consistent with the observation that ATP mediates release of bound proteins or polypeptides from heat shock proteins.

No end group written: not given here.

T1 sequence (P20029 20-655): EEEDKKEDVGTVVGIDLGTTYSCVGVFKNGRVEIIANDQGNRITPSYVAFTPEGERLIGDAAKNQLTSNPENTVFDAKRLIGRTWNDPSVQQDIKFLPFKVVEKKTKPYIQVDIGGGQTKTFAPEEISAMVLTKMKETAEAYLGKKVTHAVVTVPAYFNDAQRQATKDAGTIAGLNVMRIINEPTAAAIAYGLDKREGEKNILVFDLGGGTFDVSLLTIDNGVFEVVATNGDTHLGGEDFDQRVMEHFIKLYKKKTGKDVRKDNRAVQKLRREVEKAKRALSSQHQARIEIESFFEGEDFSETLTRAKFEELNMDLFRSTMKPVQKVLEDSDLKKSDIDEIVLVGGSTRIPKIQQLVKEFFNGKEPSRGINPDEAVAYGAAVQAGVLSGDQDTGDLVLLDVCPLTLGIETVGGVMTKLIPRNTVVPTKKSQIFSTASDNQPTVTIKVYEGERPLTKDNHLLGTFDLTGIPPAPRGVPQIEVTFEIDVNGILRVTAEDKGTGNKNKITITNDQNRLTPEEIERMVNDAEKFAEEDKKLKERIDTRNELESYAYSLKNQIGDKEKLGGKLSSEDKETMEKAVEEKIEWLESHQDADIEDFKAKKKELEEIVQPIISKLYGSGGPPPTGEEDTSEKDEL
T2 sequence (P17879 whole entry): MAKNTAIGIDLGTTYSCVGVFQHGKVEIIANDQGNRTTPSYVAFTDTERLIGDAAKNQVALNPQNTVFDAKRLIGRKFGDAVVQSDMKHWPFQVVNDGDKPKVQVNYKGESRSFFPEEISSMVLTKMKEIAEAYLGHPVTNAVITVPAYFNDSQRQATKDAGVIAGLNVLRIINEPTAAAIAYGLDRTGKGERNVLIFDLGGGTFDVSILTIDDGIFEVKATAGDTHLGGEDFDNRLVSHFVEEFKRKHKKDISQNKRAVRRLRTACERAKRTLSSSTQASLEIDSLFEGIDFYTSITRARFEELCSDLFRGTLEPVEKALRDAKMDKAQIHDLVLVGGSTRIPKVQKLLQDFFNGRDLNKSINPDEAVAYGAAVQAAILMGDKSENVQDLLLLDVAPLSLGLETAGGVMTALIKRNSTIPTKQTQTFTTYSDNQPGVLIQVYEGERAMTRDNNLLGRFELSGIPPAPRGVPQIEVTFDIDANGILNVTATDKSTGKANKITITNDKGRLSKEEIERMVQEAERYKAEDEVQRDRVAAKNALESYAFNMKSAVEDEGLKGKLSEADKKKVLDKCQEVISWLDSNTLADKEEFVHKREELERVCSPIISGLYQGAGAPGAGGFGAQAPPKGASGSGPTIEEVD

On to SIINFEKLGSGHWDFAWPW [OVA-BiP], for which the “results on cells pulsed with Ova-peptide (FIG. 5A) versus cells not pulsed (FIG. 5B)” value in assay [1] was “the same”. The “radio-activity co-eluting with heat shock protein (FIG. 6)” value in assay [2] is “significant amount of radio-activity elutes with BiP”; in assay [3], “significant amount of radio-activity elutes with BiP and hsp70”.

In the case of “hsp70: purified recombinant mouse cytosolic hsp70 from E. coli DH5α transformed with pMS236”, in assay [1], the “results on cells pulsed with Ova-peptide (FIG. 5A) versus cells not pulsed (FIG. 5B)” value was “the same”.

Take “Ser-Ile-Ile-Asn-Phe-Glu-Lys-Leu (SIINFEKL) [Ova-peptide, OVA antigenic domain peptide, reference compound]”: the “results on cells pulsed with Ova-peptide (FIG. 5A) versus cells not pulsed (FIG. 5B)” value in assay [1] is given as “the same”.

For HWDFAWPWGSGSIINFEKL [BiP-OVA], the “results on cells pulsed with Ova-peptide (FIG. 5A) versus cells not pulsed (FIG. 5B)” value in assay [1] was “the same”.

For the substance “^125I-OVA-BiP: OVA-BiP labeled with monoiodinated Bolton-Hunter reagent (SIINFEKLGSGHWDFAWPW; also: labelled with monoiodinated (125I) Bolton-Hunter reagent, place not given here)”, the “release of hybrid peptide from BiP on addition of ATP (FIG. 7)” value in assay [4] is reported as “addition of ATP causes the release”.
